In article PMC10823514, “Target Identification of a Class of Pyrazolone Protein Aggregation Inhibitor Therapeutics for Amyotrophic Lateral Sclerosis” (ACS Central Science, 2023):

Legend:
14-3-3-B = target: T1, 14-3-3-B (Homo sapiens, UniProt P31946); test: Fluorescent thermal shift assay (FTSA) with 14-3-3-B; type: binding; settings: 0 and 100 μM P2
T1 construct: His-tag (TEV-cleavable) (cleaved yes); host or cells: E. coli (BL21)
T1 sequence (P31946 1-246): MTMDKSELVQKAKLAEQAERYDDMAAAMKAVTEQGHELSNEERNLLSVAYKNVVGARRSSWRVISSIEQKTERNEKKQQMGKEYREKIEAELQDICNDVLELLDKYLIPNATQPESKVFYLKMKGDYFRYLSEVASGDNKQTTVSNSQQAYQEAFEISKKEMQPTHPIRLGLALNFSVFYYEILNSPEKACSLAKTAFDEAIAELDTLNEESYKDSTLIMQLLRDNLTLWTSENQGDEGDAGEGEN
Experimental: His-tagged 14-3-3-E, B, and H plasmids were purchased from Addgene (plasmid ID# 31562, 39128, and 38814, respectively). E. coli (BL21) were transformed with extracted plasmids via heat shock and plated on selected media. Individual colonies were selected, grown, and sequenced to confirm gene presence. 1 L cultures were grown to an OD600 of 0.6 at 37 °C and 220 rpm. Protein expression was induced with 1 mM IPTG and expressed for 12 h at 100 rpm and room temperature (approximately 25 °C). Cells were spun down at 4000 rpm for 15 min at 4 °C and resuspended in lysis buffer containing 50 mM Tris (7.4), 150 mM NaCl, 0.08% DDM, 5 mM imidazole, and 5% glycerol (with an EDTA-free complete mini protease inhibitor cocktail). Cells were lysed via sonication, and the lysate was separated from cell debris by centrifugation at 15,000 rpm, 4 °C, for 45 min. The His-tagged protein was purified using QIAGEN Ni-NTA superflow columns, and the His-tag was removed with TEV protease. His-tag-removed proteins were further purified by size exclusion chromatography. His tag removal and size exclusion chromatography purification were done at the Northwestern University Protein Production core. […]
All of the FTSA experiments were conducted in HEPES buffer (60 mM HEPES, 150 mM NaCl, pH 7.4). […] The fluorescence was measured on a Bio-Rad CFX384 real-time PCR instrument.

[1] = target: T2, 25 kDa protein band in PC12 SOD1^G93A cells (Rattus norvegicus, UniProt P62260); test: Competition of PRAPP photoaffinity labeling of the 25 kDa band in PC12-SOD1^G93A cells; type: binding; settings: 30 μM PRAPP
T2 construct: we identified a 25 kDa covalently modified protein band in the PC12 SOD1^G93A cell line; endogenous in cells; host or cells: PC12-SOD1^G93A cells (live-cell UV photolabeling, then lysis)
T2 sequence (P62260 1-255): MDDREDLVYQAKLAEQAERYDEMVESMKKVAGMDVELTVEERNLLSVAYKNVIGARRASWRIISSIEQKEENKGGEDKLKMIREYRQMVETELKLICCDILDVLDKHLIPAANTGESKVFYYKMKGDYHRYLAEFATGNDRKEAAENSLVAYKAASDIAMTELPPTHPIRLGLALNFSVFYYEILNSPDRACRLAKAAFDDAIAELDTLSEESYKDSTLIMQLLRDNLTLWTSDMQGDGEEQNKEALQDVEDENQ
Experimental: PC12-SOD1^G93A cells were cultured and grown to 90% confluency (in 6-well plates) and washed once with PBS followed by the addition of serum medium containing the appropriate analyte at the indicated concentrations. Three incubation scenarios were studied (at 37 °C): Scenario 1) 12 h preincubation with PRAPP in the absence of MG-132; Scenario 2) 12 h preincubation with PRAPP in the absence of MG-132 followed by an additional 24 h incubation (control); and Scenario 3) 12 h preincubation with PRAPP followed by the addition of MG-132 (100 nM) and an additional 24 h incubation. After incubation, the medium was discarded and cells were washed with PBS (1 × 300 μL). Fresh serum-free medium was added, and the cells were irradiated with UV light (312 nm, 120 V, 60 Hz, 0.2 A [Spectroline model EB-160C], distance ∼4 cm) for 15 min. The medium was removed, cells were washed with PBS (2 × 500 μL), and 200 μL of lysis buffer containing Tris HCl (25 mM, pH 7.6), NaCl (150 mM), 1% NP40, 1% sodium deoxycholate, 0.1% SDS, and protease inhibitor cocktail (Sigma-Aldrich, 1:100 v/v) was added to each well. Complete lysis was observed by a microscope after 10 min at 4 °C with agitation. Each lysate was centrifuged at 4 °C for 5 min at 13,000 rpm, and the resulting supernatant was concentrated with a centrifugal filter (Amicon Ultra Centrifugal Filters 3K cutoff, Millipore), normalized to 1.0 mg/mL by the Bradford assay, and analyzed immediately or stored at −80 °C for subsequent analysis.
In a darkened (wrapped with aluminum foil) Eppendorf tube, each lysate (30 μL [30 μg]) was incubated with 10 μL of the freshly prepared “click” premix containing CuSO4 (5 mM), sodium ascorbate (5 mM), TBTA (200 μM), and N3–Alexa-647 (50 μM) were added to PBS (50 mM, pH 7.4). The corresponding final concentrations within the lysate click incubation were: CuSO4 (1.25 mM), sodium ascorbate (1.25 mM), TBTA (50 μM), and N3–Alexa-647 (12.5 μM). The mixture was vortexed briefly and incubated for 1.5 h at 37 °C in the dark. NuPAGE LDS sample loading buffer (4 × 13 μL) was added, and the mixture was denatured in boiling water for 10 min. SDS-PAGE was performed on Novex Bis-Tris gel 4–12% with MES SDS running buffer (90 V constant for 30 min followed by 100 V for 90 min; load volume = 25 μL). Protein standards that gave appropriate visible and fluorescent bands for our application included the BioRad Precision Plus All Blue Protein Standard and Novex Pre-Stained Protein Standard. In-gel fluorescence was monitored (excitation λ = 635 nm; emission λ = 670 nm) using a Typhoon 9400 (GE Healthcare) fluorimager. Densitometric analysis and image refinement were carried out as needed using ImageJ software (NIH, open source). The contrast and brightness of images were modified using ImageJ and/or Microsoft Word to enhance visualization for publication purposes.

transgenic mice = settings: earlier work of the authors; cited from earlier work

With `O=c1cc(COc2cc(Cl)cc(Cl)c2)[nH][nH]1` [P2] the “binding (Tm shift)” value (14-3-3-B) was “no binding”, the “competitor to PRAPP ratio at complete disappearance of the band” value [1] was 6 and the EC50 ([1]; scenario 1, n = 2, read-out: EC50 for the competition with PRAPP (25 kDa band intensity)) was 11.1 µM. The “increase of the median survival rate” value (transgenic mice) was 13%.
